This assay concerns IL-12. The assay can be described thus: Human in vitro assay: inhibition of IL-12 production in IFNγ/LPS- or IFNγ/SAC-stimulated human PBMC or THP-1 cells (ELISA). It counts as cell-based. As to conditions: read-out: IC50 Range (representative in vitro IC50 data). The essentials:
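Sandwich ELISA for IL-12 (p70, p40) on supernatants collected 18 h after stimulation gave IC50 values; MTS monitored viability. THP-1 cells: IFNγ 100 U/mL priming 22 h, SAC 0.025%. PBMC: IFNγ 30 U/mL for 22 h plus LPS 1 μg/mL, or IFNγ 100 U/mL plus SAC 0.01%. Final DMSO 0.25%.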
A general note: ELISA stands for enzyme-linked immunosorbent assay.

What is called IC50 is the concentration needed to halve the response being measured. As to `Cc1ccc(NC(=O)c2cc(OCCN3CCOCC3)nc(N3CCOCC3)n2)cc1N(C)C` [Compound 290, 2-Morpholin-4-yl-6-(2-morpholin-4-yl-ethoxy)-pyrimidine-4-carboxylic acid (3-dimethylamino-4-methyl-phenyl)-amide], the IC50 is less than 1000 nM.
`CNc1cc(NC(=O)c2cc(OCCN3CCOCC3)nc(N3CCOCC3)n2)ccc1C` [Compound 291, 2-Morpholin-4-yl-6-(2-morpholin-4-yl-ethoxy)-pyrimidine-4-carboxylic acid (4-methyl-3-methylamino-phenyl)-amide]: the IC50 is less than 1000 nM.
Next, `O=C(Nc1cccnc1)c1cc(OCCN2CCOCC2)nc(N2CCOCC2)n1` [Compound 292, 2-Morpholin-4-yl-6-(2-morpholin-4-yl-ethoxy)-pyrimidine-4-carboxylic acid pyridin-3-ylamide]: no less than 1000 nM; `O=C(Nc1nnc(N2CCOCC2)[nH]1)c1cc(OCCN2CCOCC2)nc(N2CCOCC2)n1` [Compound 293, 2-Morpholin-4-yl-6-(2-morpholin-4-yl-ethoxy)-pyrimidine-4-carboxylic acid (5-morpholin-4-yl-4H-[1,2,4]triazol-3-yl)-amide]: no less than 1000 nM.
Turning to `COC(=O)NCCOc1cc(C(=O)Nc2ccc3[nH]c(C)c(C)c3c2)nc(N2CCOCC2)n1` [Compound 294, {2-[6-(2,3-Dimethyl-1H-indol-5-ylcarbamoyl)-2-morpholin-4-yl-pyrimidin-4-yloxy]-ethyl}-carbamic acid methyl ester], the IC50 is less than 1000 nM.
Consider `O=C(Nc1cccc(N2CCOCC2)c1)c1cc(OCCN2CCOCC2)nc(N2CCOCC2)n1` [Compound 295, 2-Morpholin-4-yl-6-(2-morpholin-4-yl-ethoxy)-pyrimidine-4-carboxylic acid (3-morpholin-4-yl-phenyl)-amide], for which the IC50 is less than 1000 nM.
Next, `O=C(Nc1ccc2c(c1)NCCC2)c1cc(OCCN2CCOCC2)nc(N2CCOCC2)n1` [Compound 296, 2-Morpholin-4-yl-6-(2-morpholin-4-yl-ethoxy)-pyrimidine-4-carboxylic acid (1,2,3,4-tetrahydro-quinolin-7-yl)-amide]: no less than 1000 nM; `Cc1ccc(NC(=O)c2cc(OCCN3CCOCC3)nc(N3CCOCC3)n2)cn1` [Compound 297, 2-Morpholin-4-yl-6-(2-morpholin-4-yl-ethoxy)-pyrimidine-4-carboxylic acid (6-methyl-pyridin-3-yl)-amide]: no less than 1000 nM.
Take `Cc1cccc(NC(=O)c2cc(N(C)CCO)nc(N3CCOCC3)n2)c1` [Compound 298, 6-[(2-Hydroxy-ethyl)-methyl-amino]-2-morpholin-4-yl-pyrimidine-4-carboxylic acid m-tolylamide]: the concentration for half-maximal inhibition (IC50) was less than 1000 nM.
Next, `CC1CCc2ccc(NC(=O)c3cc(OCCN4CCOCC4)nc(N4CCOCC4)n3)cc2N1` (centres unmarked) [Compound 299, 2-Morpholin-4-yl-6-(2-morpholin-4-yl-ethoxy)-pyrimidine-4-carboxylic acid (2-methyl-1,2,3,4-tetrahydro-quinolin-7-yl)-amide]: no less than 1000 nM.
Next, `CCN(CC)c1cccc(NC(=O)c2cc(OCCN3CCOCC3)nc(N3CCOCC3)n2)c1` [Compound 300, 2-Morpholin-4-yl-6-(2-morpholin-4-yl-ethoxy)-pyrimidine-4-carboxylic acid (3-diethylamino-phenyl)-amide]: no less than 1000 nM.
For the compound `COCCOc1cc(C(=O)Nc2ccc3[nH]c(C)c(C)c3c2)nc(N2CCOCC2)n1` [Compound 301, 6-(2-Methoxy-ethoxy)-2-morpholin-4-yl-pyrimidine-4-carboxylic acid (2,3-dimethyl-1H-indol-5-yl)-amide], the IC50 is less than 1000 nM.
Next, `COCCN(C)c1cc(C(=O)Nc2cccc(N(C)C)c2)nc(N2CCOCC2)n1` [Compound 302, 6-[(2-Methoxy-ethyl)-methyl-amino]-2-morpholin-4-yl-pyrimidine-4-carboxylic acid (3-dimethylamino-phenyl)-amide]: less than 1000 nM.
With `CN(C)c1cccc(NC(=O)c2cc(N(C)CCO)nc(N3CCOCC3)n2)c1` [Compound 303, 6-[(2-Hydroxy-ethyl)-methyl-amino]-2-morpholin-4-yl-pyrimidine-4-carboxylic acid (3-dimethylamino-phenyl)-amide], the IC50 is less than 1000 nM.
Next, `CN(CCO)c1cc(C(=O)Nc2cccc(-n3cccc3)c2)nc(N2CCOCC2)n1` [Compound 304, 6-[(2-Hydroxy-ethyl)-methyl-amino]-2-morpholin-4-yl-pyrimidine-4-carboxylic acid (3-pyrrol-1-yl-phenyl)-amide]: less than 1000 nM; `O=C(Nc1cccc(-n2ccnc2)c1)c1cc(OCCN2CCOCC2)nc(N2CCOCC2)n1` [Compound 305, 2-Morpholin-4-yl-6-(2-morpholin-4-yl-ethoxy)-pyrimidine-4-carboxylic acid (3-imidazol-1-yl-phenyl)-amide]: no less than 1000 nM; `Cc1[nH]c2ccc(NC(=O)c3cc(OCCO)nc(N4CCOCC4)n3)cc2c1C` [Compound 307, 6-(2-Hydroxy-ethoxy)-2-morpholin-4-yl-pyrimidine-4-carboxylic acid (2,3-dimethyl-1H-indol-5-yl)-amide]: less than 1000 nM.
As for `CC(C)N(C)c1cccc(NC(=O)c2cc(OCCN3CCOCC3)nc(N3CCOCC3)n2)c1` [Compound 308, 2-Morpholin-4-yl-6-(2-morpholin-4-yl-ethoxy)-pyrimidine-4-carboxylic acid [3-(isopropyl-methyl-amino)-phenyl]-amide], the IC50 was no less than 1000 nM.
With `CN(C)c1cccc(NC(=O)c2cc(OCCO)nc(N3CCOCC3)n2)c1` [Compound 309, 6-(2-Hydroxy-ethoxy)-2-morpholin-4-yl-pyrimidine-4-carboxylic acid (3-dimethylamino-phenyl)-amide], the IC50 is less than 1000 nM.
As for `CN(CCO)c1cc(C(=O)Nc2cccc(N3CCCC3)c2)nc(N2CCOCC2)n1` [Compound 310, 6-[(2-Hydroxy-ethyl)-methyl-amino]-2-morpholin-4-yl-pyrimidine-4-carboxylic acid (3-pyrrolidin-1-yl-phenyl)-amide], the IC50 was less than 1000 nM.
`COCCN(C)c1cc(C(=O)Nc2cccc(-n3cccn3)c2)nc(N2CCOCC2)n1` [Compound 311, 6-[(2-Methoxy-ethyl)-methyl-amino]-2-morpholin-4-yl-pyrimidine-4-carboxylic acid (3-pyrazol-1-yl-phenyl)-amide]: the IC50 is less than 1000 nM.
Consider `CCN(C)c1cccc(NC(=O)c2cc(OCCN3CCOCC3)nc(N3CCOCC3)n2)c1` [Compound 312, 2-Morpholin-4-yl-6-(2-morpholin-4-yl-ethoxy)-pyrimidine-4-carboxylic acid [3-(ethyl-methyl-amino)-phenyl]-amide], for which the IC50 was less than 1000 nM.
Regarding `O=C(Nc1cccc(-n2cccn2)c1)c1cc(OCCN2CCOCC2)nc(N2CCOCC2)n1` [Compound 313, 2-Morpholin-4-yl-6-(2-morpholin-4-yl-ethoxy)-pyrimidine-4-carboxylic acid (3-pyrazol-1-yl-phenyl)-amide], the concentration for half-maximal inhibition (IC50) was less than 1000 nM.
For `Cc1[nH]c2ccc(NC(=O)c3cc(OCC(C)(C)O)nc(N4CCOCC4)n3)cc2c1C` [Compound 314, 6-(2-Hydroxy-2-methyl-propoxy)-2-morpholin-4-yl-pyrimidine-4-carboxylic acid (2,3-dimethyl-1H-indol-5-yl)-amide] the value was less than 1000 nM; for `CN(CCO)c1cc(C(=O)Nc2cccc(-n3cccn3)c2)nc(N2CCOCC2)n1` [Compound 315, 6-[(2-Hydroxy-ethyl)-methyl-amino]-2-morpholin-4-yl-pyrimidine-4-carboxylic acid (3-pyrazol-1-yl-phenyl)-amide], less than 1000 nM.
For `Cc1[nH]c2ccc(NC(=O)c3cc(OCC(=O)OC(C)(C)C)nc(N4CCOCC4)n3)cc2c1C` [Compound 316, [6-(2,3-Dimethyl-1H-indol-5-ylcarbamoyl)-2-morpholin-4-yl-pyrimidin-4-yloxy]-acetic acid tert-butyl ester] the value was less than 1000 nM; for `CN1CCCc2ccc(NC(=O)c3cc(OCCN4CCOCC4)nc(N4CCOCC4)n3)cc21` [Compound 317, 2-Morpholin-4-yl-6-(2-morpholin-4-yl-ethoxy)-pyrimidine-4-carboxylic acid (1-methyl-1,2,3,4-tetrahydro-quinolin-7-yl)-amide], less than 1000 nM.
For `CN1CCCc2cc(NC(=O)c3cc(OCCN4CCOCC4)nc(N4CCOCC4)n3)ccc21` [Compound 318, 2-Morpholin-4-yl-6-(2-morpholin-4-yl-ethoxy)-pyrimidine-4-carboxylic acid (1-methyl-1,2,3,4-tetrahydro-quinolin-6-yl)-amide] the value was no less than 1000 nM; for `Cc1cc(C(=O)Nc2ccc3c(c2)c(C)c(C)n3O)nc(N2CCOCC2)n1` [Compound 319, 6-Methyl-2-morpholin-4-yl-pyrimidine-4-carboxylic acid (1-hydroxy-2,3-dimethyl-1H-indol-5-yl)-amide], less than 1000 nM; for `Cc1c(C)n(O)c2ccc(NC(=O)c3cc(OCCN4CCOCC4)nc(N4CCOCC4)n3)cc12` [Compound 320, 2-Morpholin-4-yl-6-(2-morpholin-4-yl-ethoxy)-pyrimidine-4-carboxylic acid (1-hydroxy-2,3-dimethyl-1H-indol-5-yl)-amide], less than 1000 nM.
As for `CC1CCc2ccc(NC(=O)c3cc(OCCN4CCOCC4)nc(N4CCOCC4)n3)cc2N1C` (centres unmarked) [Compound 321, 2-Morpholin-4-yl-6-(2-morpholin-4-yl-ethoxy)-pyrimidine-4-carboxylic acid (1,2-dimethyl-1,2,3,4-tetrahydro-quinolin-7-yl)-amide], the IC50 was no less than 1000 nM.
For `O=C(Nc1ccc2[nH]c3c(c2c1)CCCC3)c1cc(OCCc2cccc[n+]2[O-])nc(N2CCOCC2)n1` [Compound 322, 2-Morpholin-4-yl-6-[2-(1-oxy-pyridin-2-yl)-ethoxy]-pyrimidine-4-carboxylic acid (6,7,8,9-tetrahydro-5H-carbazol-3-yl)-amide] the value was less than 1000 nM.

(Values after patent publication US20060223996A1, “IL-12 modulatory compounds” (Synta Pharmaceuticals Corp., priority 2004, published 2006).)
